The nature of series [1]: Cmax in Lewis rat at 1 mg/kg, iv measured upto 24 hrs by LC-MS/MS analysis. It counts as ADME, organism-based. The arrangement: route intravenous, dose 1 mg/kg, time <=24. The following applies: in vivo.
Series [2] in a line: AUClast in Lewis rat at 10 mg/kg, po measured upto 24 hrs by LC-MS/MS analysis. The arrangement: route oral, dose 10 mg/kg, time <=24. The following applies: in vivo. It counts as ADME, organism-based.
A further series addresses T1, Cytochrome P450 1A2 (Homo sapiens, UniProt P05177).
T1 sequence (P05177 whole entry): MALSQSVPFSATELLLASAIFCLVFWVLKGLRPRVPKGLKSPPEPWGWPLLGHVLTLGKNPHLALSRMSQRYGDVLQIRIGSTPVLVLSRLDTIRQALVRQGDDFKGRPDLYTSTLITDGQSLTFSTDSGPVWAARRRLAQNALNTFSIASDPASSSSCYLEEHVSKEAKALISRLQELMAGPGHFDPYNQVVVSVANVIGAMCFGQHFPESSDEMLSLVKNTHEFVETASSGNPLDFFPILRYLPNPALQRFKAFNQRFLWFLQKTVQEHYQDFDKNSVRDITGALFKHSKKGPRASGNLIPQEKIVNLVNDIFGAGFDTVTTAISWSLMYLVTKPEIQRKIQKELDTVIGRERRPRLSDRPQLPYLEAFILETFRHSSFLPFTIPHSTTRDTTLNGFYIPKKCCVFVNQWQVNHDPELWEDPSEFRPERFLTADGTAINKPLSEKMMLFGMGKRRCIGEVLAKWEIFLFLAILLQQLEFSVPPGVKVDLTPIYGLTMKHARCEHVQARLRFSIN
The experiment in a line: Inhibition of CYP1A2 in human liver microsomes at 10 uM by LC-MS/MS analysis. It counts as ADME. For orientation: Liver microsomes are vesicles of endoplasmic reticulum, rich in cytochrome P450 enzymes.

Series [3] is described as follows: Tmax in BALB/c mouse at 1 mg/kg, iv measured upto 24 hrs by LC-MS/MS analysis. It counts as ADME, organism-based. The following applies: in vivo.
The nature of series [4]: Volume of distribution at steady state in BALB/c mouse at 1 mg/kg, iv measured upto 24 hrs by LC-MS/MS analysis. It counts as ADME, organism-based. The following applies: in vivo, read-out: Vdss.
A short description of series [5]: AUClast in CFA-induced rheumatoid arthritis Lewis rat model at 3 mg/kg, po administered once daily for 15 days. It counts as ADME, organism-based. The note with it: in vivo. The arrangement: route oral, time 15 day, dose 3 mg/kg.
The nature of series [6]: AUClast in BALB/c mouse model of mBSA-induced delayed type hypersensitivity at 3 mg/kg, po administered twice daily for 7 days followed by mBSA challenge and measured after 24 hrs. It counts as ADME, organism-based. The arrangement: route oral, time 8 day, dose 3 mg/kg. The note with it: in vivo.
A short description of series [7]: Cmax in human whole blood at 80 mg, bid. It counts as ADME, tissue-based. The arrangement: dose 80 mg.
Series [8] is described as follows: Cmax in BALB/c mouse model of mBSA-induced delayed type hypersensitivity at 3 mg/kg, po administered twice daily for 7 days followed by mBSA challenge and measured after 24 hrs. It counts as ADME, organism-based. The arrangement: route oral, time 8 day, dose 3 mg/kg. The following applies: in vivo.
A short description of series [9]: Tmax in collagen-induced rheumatoid arthritis DBA/1J mouse model at 3 mg/kg, po administered twice daily for 15 days. The note with it: in vivo, time 15 day. It counts as ADME, organism-based.
Series [10] can be described thus: Cmax in BALB/c mouse model of mBSA-induced delayed type hypersensitivity at 1 mg/kg, po administered twice daily for 7 days followed by mBSA challenge and measured after 24 hrs. It counts as ADME, organism-based. The arrangement: route oral, time 8 day, dose 1 mg/kg. The note with it: in vivo.
Series [11] is described as follows: Tmax in CFA-induced rheumatoid arthritis Lewis rat model at 3 mg/kg, po administered once daily for 15 days. It counts as ADME, organism-based. The following applies: in vivo, time 15 day.
The nature of series [12]: Tmax in CFA-induced rheumatoid arthritis Lewis rat model at 1 mg/kg, po administered once daily for 15 days. It counts as ADME, organism-based. The note with it: in vivo, time 15 day.
The nature of series [13]: Cmax in CFA-induced rheumatoid arthritis Lewis rat model at 3 mg/kg, po administered once daily for 15 days. It counts as ADME, organism-based. The arrangement: route oral, time 15 day, dose 3 mg/kg. The note with it: in vivo.
Series [14] is described as follows: Tmax in BALB/c mouse model of mBSA-induced delayed type hypersensitivity at 10 mg/kg, po administered twice daily for 7 days followed by mBSA challenge and measured after 24 hrs. It counts as ADME, organism-based. The note with it: in vivo, time 8 day.
Series [15] can be described thus: Toxicity in mouse assessed as maximum tolerated dose. The following applies: in vivo.
A short description of series [16]: Cmax in rat at 60 mg/kg/day after 2 weeks. It counts as ADME, organism-based. The arrangement: time 2 weeks, dose 60 mg/kg/day. The note with it: in vivo.
The nature of series [17]: Tmax in BALB/c mouse model of mBSA-induced delayed type hypersensitivity at 1 mg/kg, po administered twice daily for 7 days followed by mBSA challenge and measured after 24 hrs. It counts as ADME, organism-based. The note with it: in vivo, time 8 day.
Series [18] in a line: Cmax in human whole blood at 160 mg, qd. The arrangement: dose 160 mg. It counts as ADME, tissue-based.
A short description of series [19]: Cmax in collagen-induced rheumatoid arthritis DBA/1J mouse model at 3 mg/kg, po administered twice daily for 15 days. It counts as ADME, organism-based. The arrangement: route oral, time 15 day, dose 3 mg/kg. The following applies: in vivo.
Series [20] addresses Voltage-gated inwardly rectifying potassium channel KCNH2 (Homo sapiens, UniProt Q12809). Kind of series: Inhibition of human ERG by FLIPR TETRA method.
The nature of series [21]: AUClast in CFA-induced rheumatoid arthritis Lewis rat model at 0.3 mg/kg, po administered once daily for 15 days. It counts as ADME, organism-based. The arrangement: route oral, time 15 day, dose 0.3 mg/kg. The following applies: in vivo.
A short description of series [22]: AUClast in rat at 1 mg/kg/day. It counts as ADME, organism-based. The arrangement: time 0 - last, dose 1 mg/kg/day. The note with it: in vivo.
Series [23] can be described thus: Cmax in CFA-induced rheumatoid arthritis Lewis rat model at 1 mg/kg, po administered once daily for 15 days. The arrangement: route oral, dose 1 mg/kg, time 15 day. The note with it: in vivo. It counts as ADME, organism-based.
A further series deals with Tumor necrosis factor (Homo sapiens, UniProt P01375). Kind of series: Inhibition of TNF-alpha in thapsigargin stimulated human whole blood. It counts as tissue-based.
Series [24] can be described thus: Trough concentration in human whole blood at 160 mg, qd. It counts as ADME, tissue-based. The note with it: read-out: Cmin.
Series [25] is described as follows: Cmax in human at […] measured on day 14. It counts as ADME, organism-based. The arrangement: time 14 day. The note with it: in vivo.
The nature of series [26]: Cmax in BALB/c mouse model of mBSA-induced delayed type hypersensitivity at 10 mg/kg, po administered twice daily for 7 days followed by mBSA challenge and measured after 24 hrs. The arrangement: route oral, dose 10 mg/kg, time 8 day. It counts as ADME, organism-based. The following applies: in vivo.
Series [27] in a line: Toxicity in rat assessed as minimum effective dose. The note with it: in vivo.
The nature of series [28]: Cmax in rat at 60 mg/kg/day after 13 weeks. The following applies: in vivo. It counts as ADME, organism-based. The arrangement: time 13 weeks, dose 60 mg/kg/day.
Series [29] in a line: Cmax in rat at 1 mg/kg/day. The note with it: in vivo. The arrangement: dose 1 mg/kg/day. It counts as ADME, organism-based.
Series [30] is described as follows: Tmax in BALB/c mouse model of mBSA-induced delayed type hypersensitivity at 3 mg/kg, po administered twice daily for 7 days followed by mBSA challenge and measured after 24 hrs. The note with it: in vivo, time 8 day. It counts as ADME, organism-based.
The nature of series [31]: Tmax in collagen-induced rheumatoid arthritis DBA/1J mouse model at 3 mg/kg, po administered twice daily for 15 days in presence of 0.75 mg/kg of methotrexate. It counts as ADME, organism-based. The following applies: in vivo, time 15 day.
Series [32] is described as follows: Tmax in CFA-induced rheumatoid arthritis Lewis rat model at 0.3 mg/kg, po administered once daily for 15 days. It counts as ADME, organism-based. The note with it: in vivo, time 15 day.
Series [33] can be described thus: Toxicity in human assessed as minimum effective dose.
Series [34] is described as follows: AUClast in BALB/c mouse model of mBSA-induced delayed type hypersensitivity at 10 mg/kg, po administered twice daily for 7 days followed by mBSA challenge and measured after 24 hrs. It counts as ADME, organism-based. The arrangement: route oral, time 8 day, dose 10 mg/kg. The note with it: in vivo.
Series [35] can be described thus: Cmax in CFA-induced rheumatoid arthritis Lewis rat model at 0.3 mg/kg, po administered once daily for 15 days. It counts as ADME, organism-based. The arrangement: route oral, dose 0.3 mg/kg, time 15 day. The following applies: in vivo.
The nature of series [36]: AUC(0 to t) in human at […] measured on day 14. It counts as ADME, organism-based. The arrangement: time 14 day. The note with it: in vivo.
Series [37] is described as follows: AUClast in BALB/c mouse model of mBSA-induced delayed type hypersensitivity at 1 mg/kg, po administered twice daily for 7 days followed by mBSA challenge and measured after 24 hrs. The note with it: in vivo. The arrangement: route oral, dose 1 mg/kg, time 8 day. It counts as ADME, organism-based.
Series [38] in a line: Cmax in collagen-induced rheumatoid arthritis DBA/1J mouse model at 3 mg/kg, po administered twice daily for 15 days in presence of 0.75 mg/kg of methotrexate. It counts as ADME, organism-based. The arrangement: route oral, dose 3 mg/kg, time 15 day. The note with it: in vivo.

In general, Cmax refers to the maximum level reached in the sampled fluid or tissue. As usually defined, the AUC(0-t) is the area under the concentration-time curve up to a stated or last time point. A word on the Tmax: it is the time at which the peak concentration occurs. By MTD is commonly meant the largest dose that counted as tolerated. As usually defined, the IC50 is the concentration at which inhibition is half-maximal.

Values joined by “and” are separate entries in the source; they are usually repeats but may differ in a detail not shown here. Identical values can stand only once.

Tumor necrosis factor, sequence (P01375 whole entry): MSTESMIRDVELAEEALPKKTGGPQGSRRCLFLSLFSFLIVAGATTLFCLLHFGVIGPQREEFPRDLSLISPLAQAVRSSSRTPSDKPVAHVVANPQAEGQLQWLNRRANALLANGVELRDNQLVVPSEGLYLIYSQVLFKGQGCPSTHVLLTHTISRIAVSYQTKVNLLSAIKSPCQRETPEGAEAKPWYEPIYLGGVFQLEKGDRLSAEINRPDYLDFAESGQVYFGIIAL
Voltage-gated inwardly rectifying potassium channel KCNH2, sequence (Q12809 whole entry): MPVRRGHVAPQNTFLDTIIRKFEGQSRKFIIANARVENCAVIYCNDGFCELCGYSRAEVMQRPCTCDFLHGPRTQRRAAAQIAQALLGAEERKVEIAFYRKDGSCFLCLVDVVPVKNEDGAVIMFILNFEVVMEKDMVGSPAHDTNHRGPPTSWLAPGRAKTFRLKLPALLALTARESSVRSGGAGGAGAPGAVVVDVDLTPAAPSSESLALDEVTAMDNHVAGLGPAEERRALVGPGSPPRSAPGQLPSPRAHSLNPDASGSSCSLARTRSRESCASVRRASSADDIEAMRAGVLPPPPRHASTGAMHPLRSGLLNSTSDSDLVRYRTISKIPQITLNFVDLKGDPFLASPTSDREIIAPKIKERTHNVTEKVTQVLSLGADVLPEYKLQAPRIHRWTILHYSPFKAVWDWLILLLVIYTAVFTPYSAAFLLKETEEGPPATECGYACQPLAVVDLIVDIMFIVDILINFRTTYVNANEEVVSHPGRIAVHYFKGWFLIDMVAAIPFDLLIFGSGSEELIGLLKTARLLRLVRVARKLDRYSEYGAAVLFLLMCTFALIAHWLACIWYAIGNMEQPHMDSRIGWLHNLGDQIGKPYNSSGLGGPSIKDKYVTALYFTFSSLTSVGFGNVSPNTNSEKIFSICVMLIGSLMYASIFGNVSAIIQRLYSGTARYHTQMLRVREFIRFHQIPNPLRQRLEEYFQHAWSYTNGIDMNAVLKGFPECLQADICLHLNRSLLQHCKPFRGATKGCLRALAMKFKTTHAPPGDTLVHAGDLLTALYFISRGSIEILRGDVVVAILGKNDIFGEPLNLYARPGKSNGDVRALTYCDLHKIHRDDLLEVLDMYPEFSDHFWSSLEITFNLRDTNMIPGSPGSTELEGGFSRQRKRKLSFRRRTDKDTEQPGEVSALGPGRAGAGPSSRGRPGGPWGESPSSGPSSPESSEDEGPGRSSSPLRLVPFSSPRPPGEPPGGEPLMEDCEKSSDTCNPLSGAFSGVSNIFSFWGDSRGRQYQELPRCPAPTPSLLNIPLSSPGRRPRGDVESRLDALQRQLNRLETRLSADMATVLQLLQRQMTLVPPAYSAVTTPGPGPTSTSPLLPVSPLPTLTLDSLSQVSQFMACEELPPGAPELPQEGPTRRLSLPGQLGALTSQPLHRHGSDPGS

In series [1], `Cc1c(-c2ccc(NC(=O)c3c(F)cccc3Cl)cc2)cccc1-c1nn(C)c(=O)o1` returned a Cmax of 5000 nM. Besides, in [2], the AUC(0-t) at 24 h turned out to be 167 µM·h. In addition, the “inhibition (INH)” value against Cytochrome P450 1A2 is “Not Active”. In addition, in series [3], the Tmax is 4.8 min. In addition, the Vd in series [4] turned out to be 2.3 L/kg.
Turning to `Cc1c(-c2ccc(NC(=O)c3c(F)cccc3F)cc2)cccc1-c1nn(C)c(=O)o1`, the AUC(0-t) at 360 h in series [5] was 80 µM·h; in series [21], 10 µM·h. Further, the AUC(0-t) at 192 h in [6] stood at 8.3 µM·h; in series [34], 17 µM·h; in series [37], 3.1 µM·h. The Cmax in series [7] is 1570 nM; in [8], 1600 nM; in series [1], 4000 nM; in series [10], 600 nM; in series [13], 4500 nM; in series [16], 5440 ng/mL. In addition, the Cmax in series [18] is 1760 nM; in [19] it was 1900 nM; in [23] it was 2000 nM; in series [25], 530 ng/mL; in series [26], 3300 nM; in series [28], 4680 ng/mL. For the same molecule, the Cmax in series [29] is 2 µM and 843 ng/mL; in series [35], 600 nM; in series [38], 1600 nM. In addition, the Tmax amounted to 1 h in series [9]; 4 h in [11]; 2 h in [12]; 2 h in series [14]; 2 h in series [17]; 4.8 min in [3]. The time of peak concentration (Tmax) in series [30], in series [31] and in series [32] was 2 h each time. Moreover, in series [15], the MTD was determined as 2000 mg/kg. This molecule yielded an AUC(0-t) at 24 h in [2] of 353 µM·h. For the same molecule, at Cytochrome P450 1A2, the “inhibition (INH)” value is on record as “Not Active”. Moreover, the IC50 was above 10000 nM in series [20] and 694 nM against Tumor necrosis factor. In series [22], the AUC(0-t) is 36 µM·h and 15200 ng·h/mL. Also, in [24], the concentration came out at 403 nM. Also, the MED in series [27] amounted to 1 mg/kg; in [33] it was 80 mg/kg. Moreover, the AUC(0-t) at 336 h in [36] was determined as 7050 ng·h/mL. Moreover, the Vd in [4] worked out at 2.3 L/kg.

Source of the values: ChEMBL document CHEMBL4831556, “Discovery of a Novel Potent and Selective Calcium Release-Activated Calcium Channel Inhibitor: 2,6-Difluoro-N-(2'-methyl-3'-(4-methyl-5-oxo-4,5-dihydro-1,3,4-oxadiazol-2-yl)-[1,1'-biphenyl]-4-yl)benzamide. Structure-Activity Relationship and Preclinical Characterization” (J Med Chem, 2021).
